Results as given in patent publication US20190144401A1, “IMINOSYDNONE DERIVATIVES FOR CONJUGATION AND RELEASE OF COMPOUNDS OF INTEREST” (UNIVERSITE DE STRASBOURG, priority 2014, published 2019).

Experiments:
[1] = Kinetics of the coupling reaction of iminosydnones with BCN (HPLC monitoring); assay type: physicochemical; details: 100 μM iminosydnone, 150 μM BCN, PBS 0.1M (pH 7.4) containing 10% DMSO
Method: (§1) The kinetics of the coupling reaction of different iminosydnones with two cyclic alkynes was studied, according to the following scheme.
(§2) Reactions of iminosydnones with BCN (Bicyclononyne) or TMTH were carried out in PBS/DMSO (9:1) mixtures at 100 μM concentration of sydnones and 150 μM concentration of BCN or TMTH using the following procedure:
(§3) To 900 μL of phosphate buffered saline (PBS, 100 mM) was added 87.5 μL of DMSO, 10 μL of the solution of benzamide (internal standard, 100 mM in DMSO), 1 μL of the solution of iminosydnone (100 mM in DMSO) and 1.5 μL of the solution of BCN or TMTH (100 mM in DMSO). The reaction mixture was injected in HPLC every 30 min and the conversion was followed by measuring the normalized sydnone peak area.
(§4) Second order reaction rate was determined by plotting ln([A]/[B])/([A]−[B]) versus time and analyzing by linear regression (Equation). Second order rate constant corresponds to the determined slope.
(§5) Equation. [A]—concentration of iminosydnones (M); [B]—concentration of BCN (M); t—reaction time (sec); k—reaction rate (M^−1·sec^−1)

[2] = Kinetics of the coupling reaction of iminosydnones with TMTH (HPLC monitoring); assay type: physicochemical; details: 100 μM iminosydnone, 150 μM TMTH, PBS 0.1M (pH 7.4) containing 10% DMSO
Method: as §1, §2, §3, §4, §5

Compound	K (BCN) [1]	K (TMTH) [2] [M⁻¹ s⁻¹]
[NH-]c1c[n+](-c2ccccc2)no1 [Im1]	no reaction	
CC(=O)[N-]c1c[n+](-c2ccccc2)no1 [Im2]	0.002 M⁻¹ s⁻¹	2.2
Cc1ccc(-[n+]2cc([N-]C(=O)Cc3ccccc3)on2)cc1 [Im3]	0.004 M⁻¹ s⁻¹	
Cc1ccc(-[n+]2cc([N-]C(=O)CCc3ccccc3)on2)cc1 [Im4]	0.034 M⁻¹ s⁻¹	
Cc1ccc(NC(=O)[N-]c2c[n+](-c3ccccc3)no2)cc1 [Im5]	0.069 M⁻¹ s⁻¹	43.1
Cc1ccc(NC(=O)[N-]c2c[n+](-c3ccc(O)cc3)no2)cc1 [Im6]	0.008 M⁻¹ s⁻¹	4.1
Cc1ccc(NC(=O)[N-]c2c[n+](-c3ccc(C(=O)O)cc3)no2)cc1 [Im7]	0.108 M⁻¹ s⁻¹	61.2
CCOC(=O)c1ccc(NC(=O)[N-]c2c[n+](-c3ccc(O)cc3)no2)cc1 [Im8]	0.008 M⁻¹ s⁻¹	2.5
Cc1ccc(-[n+]2cc([N-]C(=O)NCc3ccccc3)on2)cc1 [Im9]	0.004 M⁻¹ s⁻¹	
Cc1ccc(-[n+]2noc([N-]C(=O)NCc3ccccc3)c2Br)cc1 [Im10]	0.060 M⁻¹ s⁻¹	
Cc1ccc(-[n+]2cc([N-]C(=O)OCc3ccccc3)on2)cc1 [Im11]	0.026 M⁻¹ s⁻¹	
Cc1ccc(-[n+]2noc([N-]C(=O)OCc3ccccc3)c2Br)cc1 [Im12]	0.150 M⁻¹ s⁻¹	
N#CC#Cc1ccc(NC(=O)[N-]c2c[n+](-c3ccc(C(=O)O)cc3)no2)cc1 [Im14, (3-(4-carboxyphenyl)-1,2,3-oxadiazol-3-ium-5-yl)((4-(cyanoethynyl)phenyl)carbamoyl)amide]	0.132 M⁻¹ s⁻¹	
